The source of these data is US5521156A, “Cyclic neurokinin A antagonists” (priority 1994, dated 1996).

The structures appear in SMILES notation. Where a SMILES comes first, the peptide text is derived from it. [ ]: non-standard residue; d: D form.

Experiment [1] addresses T1, bovine stomach NK-2 receptor (Bos taurus, UniProt P05363).
T1 construct: expressed in transfected cells; host or cells: SKLKB82#3 (mouse fibroblast cell line)
T1 sequence (P05363 1-384): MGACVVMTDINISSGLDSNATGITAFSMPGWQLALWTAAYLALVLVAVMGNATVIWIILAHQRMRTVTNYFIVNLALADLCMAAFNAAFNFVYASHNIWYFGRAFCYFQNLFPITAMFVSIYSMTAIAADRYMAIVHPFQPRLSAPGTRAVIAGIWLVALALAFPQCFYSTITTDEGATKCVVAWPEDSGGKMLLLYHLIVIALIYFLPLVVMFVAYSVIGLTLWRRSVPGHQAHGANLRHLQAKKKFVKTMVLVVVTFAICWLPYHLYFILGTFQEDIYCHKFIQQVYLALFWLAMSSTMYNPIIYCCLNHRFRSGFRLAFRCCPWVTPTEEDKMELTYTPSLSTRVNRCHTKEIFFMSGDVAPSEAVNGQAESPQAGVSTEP
Briefly: Antagonism of NK-2 receptor mediated phosphatidylinositol turnover in SKLKB82#3 cells. In kind it is cell-based. The settings on record: Schild regression vs NKA, 95% confidence limits 8.22 to 8.69, read-out: pA2 (converted). On the procedure:
Cultured SKLKB82#3 (bovine stomach NK-2 receptor transfected into mouse fibroblast cell line) cells were seeded onto 24-well plates at 125,000 cells/well, two-three days prior to assay. Cells were loaded with 0.5 ml of 0.2 μM myo[2-^3 H(N)] inositol (American Radiolabeled Chemicals Inc., specific activity, 20 Ci/mmol) 20-24 hrs prior to assay. Cultured cells were maintained at 37° C. in a 5% CO2 environment. On the day of the assay, media was aspirated and the cells incubated in D-MEM/F-12 media containing 40 μg/ml bacitracin, 4 μg/ml each of leupeptin and chymostatin, 0.1% bovine serum albumin and 1 μM thiorphan and 10 mM LiCl. After 15 min., cyclo[Tyr-trp-Leu-Arg-Trp-Gly] SEQ. ID 6 (concentration range 0.3 nM -10 μM) was added to the cells in a volume of 0.1 ml. […] The third elution was collected and counted in 9 ml scintillation fluid. A 50 μl aliquot of the organic (bottom) phase was removed, dried in a scintillation vial and counted in 7 ml scintillation fluid.
The ratio of DPM in the aqueous phase aliquot (total inositol phosphates) to the DPM in the 50 μl organic phase aliquot (total [^3 H]-inositol incorporated) was calculated for each sample. Data are expressed as a percent of agonist-induced accumulation of [3H]-inositol phosphates over basal leTels. […]

Experiment [2] relates to mice. The following applies: mouse, in vivo. On the procedure:
The analgesic potential of the compounds of this invention was measured using a modification of the method of Whittle (Br. J. Pharmacol. 22:2246, 1964). Groups of 5-10 male mice received an intrathecal injection of cyclo[Tyr-trp-Leu-Arg-Trp-Gly] SEQ. ID 6 (0.013-4μg) or ethanol/saline vehicle in a volume of 5 μl. After 5 minutes, mice received an intraperitoneal injection of 0.4 ml acetic acid (0.25% v/v). […] To calculate an ED50 (dose producing analgesia in 50% of the mice), four or more doses of compound were tested and the results subjected to quantal analysis with an appropriate computer program.

For `CC(C)C[C@@H]1NC(=O)[C@@H](Cc2c[nH]c3ccccc23)NC(=O)[C@H](Cc2ccc(O)cc2)NC(=O)CNC(=O)[C@H](Cc2c[nH]c3ccccc23)NC(=O)[C@H](CCCNC(=N)N)NC1=O` [cyclo[Tyr--trp--Leu--Arg--Trp--Gly], cyclo[Tyr-trp-Leu-Arg-Trp-Gly]] (cyclo(GY[dW]LRW)), the Kb in experiment [1] is 3.55 nM. Further, in experiment [2], the “ED50 (dose producing analgesia in 50% of the mice)” value stood at 0.18 µg.
